Consider 10 molecules from patent publication US10723723B2, “Substituted bicycle heterocyclic derivatives useful as ROMK channel inhibitors” (BRISTOL-MYERS SQUIBB COMPANY, priority 2016, dated 2020).

pIC50: −log10 of the molar value.

In one data set the target is hROMK (human Kir1.1) (Homo sapiens (Human), UniProt P48048). In words: Thallium Flux Assay (FluxOR, CHO T-Rex hROMK stable cell line). As to conditions: CHO T-Rex hROMK cells, 10-point concentration response curve; read-out: Human ROMK TH Flux IC50. The data set is classed as cell-based.
Chain of hROMK (human Kir1.1) (P48048 whole entry): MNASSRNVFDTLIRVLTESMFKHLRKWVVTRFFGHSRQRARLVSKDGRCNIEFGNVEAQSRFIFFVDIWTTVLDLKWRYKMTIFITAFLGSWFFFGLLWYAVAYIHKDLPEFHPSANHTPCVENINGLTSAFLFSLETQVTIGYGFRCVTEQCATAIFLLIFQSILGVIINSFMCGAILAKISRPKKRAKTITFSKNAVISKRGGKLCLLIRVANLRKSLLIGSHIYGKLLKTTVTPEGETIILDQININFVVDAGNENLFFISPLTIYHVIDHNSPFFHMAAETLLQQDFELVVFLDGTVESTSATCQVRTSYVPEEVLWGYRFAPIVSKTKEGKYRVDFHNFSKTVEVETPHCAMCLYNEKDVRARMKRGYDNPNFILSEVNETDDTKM
Another data set addresses hERG channels (Homo sapiens (Human), UniProt Q12809). The experiment in a line: hERG Manual Patch Clamp Assay (HEK 293 cells stably expressing hERG channels). The data set is classed as cell-based. As to conditions: human, HEK 293 cells stably expressing hERG channels, pH 7.4. (Block of hERG is tested as a sign of cardiac risk.)

Chain of hERG channels (Q12809 whole entry): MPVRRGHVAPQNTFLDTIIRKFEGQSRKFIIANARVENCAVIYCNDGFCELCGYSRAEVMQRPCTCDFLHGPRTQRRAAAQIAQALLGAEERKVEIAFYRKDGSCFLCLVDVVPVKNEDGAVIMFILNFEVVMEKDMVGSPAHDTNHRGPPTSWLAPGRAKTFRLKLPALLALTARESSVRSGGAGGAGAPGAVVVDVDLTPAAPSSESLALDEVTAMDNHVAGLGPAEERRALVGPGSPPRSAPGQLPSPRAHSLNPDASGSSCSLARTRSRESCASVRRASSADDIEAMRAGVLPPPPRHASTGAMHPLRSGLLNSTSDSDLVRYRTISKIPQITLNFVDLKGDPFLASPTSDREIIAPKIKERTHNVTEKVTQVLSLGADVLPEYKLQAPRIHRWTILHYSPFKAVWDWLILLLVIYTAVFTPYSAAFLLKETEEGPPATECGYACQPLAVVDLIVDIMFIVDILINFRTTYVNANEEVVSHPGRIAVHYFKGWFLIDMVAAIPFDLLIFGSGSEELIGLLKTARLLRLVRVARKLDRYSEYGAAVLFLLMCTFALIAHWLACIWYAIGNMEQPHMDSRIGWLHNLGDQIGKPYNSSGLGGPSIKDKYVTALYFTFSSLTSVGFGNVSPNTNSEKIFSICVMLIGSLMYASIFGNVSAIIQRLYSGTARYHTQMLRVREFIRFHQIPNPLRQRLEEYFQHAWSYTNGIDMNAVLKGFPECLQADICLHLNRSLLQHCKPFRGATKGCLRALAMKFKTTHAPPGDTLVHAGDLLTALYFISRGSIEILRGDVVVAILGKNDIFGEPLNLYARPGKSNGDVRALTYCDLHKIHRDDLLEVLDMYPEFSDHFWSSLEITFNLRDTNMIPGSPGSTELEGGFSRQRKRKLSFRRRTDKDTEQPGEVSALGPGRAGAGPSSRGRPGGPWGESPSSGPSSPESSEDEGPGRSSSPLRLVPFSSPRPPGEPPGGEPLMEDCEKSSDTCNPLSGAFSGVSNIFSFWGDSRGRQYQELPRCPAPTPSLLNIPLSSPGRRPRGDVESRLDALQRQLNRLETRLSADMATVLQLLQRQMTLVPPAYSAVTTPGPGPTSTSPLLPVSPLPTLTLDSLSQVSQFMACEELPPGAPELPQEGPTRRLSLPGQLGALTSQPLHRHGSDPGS

By pIC50 is commonly meant the IC50 on a negative log10 scale, so that one unit is a factor of ten. By inhibition is commonly meant the share of the control response that was lost under treatment. Low readings indicate little suppression, high ones strong suppression. As for `Cc1c([C@@H](O)CNCc2cnc(-n3cnc(C(F)(F)F)c3)nc2)ccc2c1COC2=O` [Example 96, (R)-5-(1-hydroxy-2-(((2-(4-(trifluoromethyl)-1H-imidazol-1-yl)pyrimidin-5-yl)methyl)amino)ethyl)-4-methylisobenzofuran-1(3H)-one], on hROMK (human Kir1.1), the pIC50 is 7.21. Further, the inhibition at 1 µM on hERG channels was 19%.

For `Cc1cc(-c2ncc(CNC[C@H](O)c3ccc4c(c3C)COC4=O)s2)ncc1C#N` [Example 128, (R)-6-(5-(((2-hydroxy-2-(4-methyl-1-oxo-1,3-dihydroisobenzofuran-5-yl)ethyl)amino)methyl)thiazol-2-yl)-4-methylnicotinonitrile], on hROMK (human Kir1.1), the pIC50 was 8.18. This molecule displayed an inhibition at 1 µM at hERG channels of 22%.

For `Cc1c([C@@H](O)CNCc2cnn(-c3cc(C4CC4)c(C#N)cn3)c2)ccc2c1COC2=O` [Example 148, (R)-4-cyclopropyl-6-(4-(((2-hydroxy-2-(4-methyl-1-oxo-1,3-dihydroisobenzofuran-5-yl)ethyl)amino)methyl)-1H-pyrazol-1-yl)nicotinonitrile], at hROMK (human Kir1.1), the negative logarithm of the IC50 (pIC50) is 6.70. Also, the inhibition at 1 µM against hERG channels came to 72%.

For `Cc1c([C@@H](O)CNCc2ccc(-n3ccc(C#N)n3)nc2)ccc2c1COC2=O` [Example 151, (R)-1-(5-(((2-hydroxy-2-(4-methyl-1-oxo-1,3-dihydroisobenzofuran-5-yl)ethyl)amino)methyl)pyridin-2-yl)-1H-pyrazole-3-carbonitrile], on hROMK (human Kir1.1), the negative logarithm of the IC50 (pIC50) is 7.54. On hERG channels, this molecule yielded an inhibition at 1 µM of 45%.

`COc1cc(-n2cc(CNC[C@H](O)c3ccc4c(c3C)COC4=O)nc2C)ncc1C#N` [Example 52, (R)-6-(4-(((2-hydroxy-2-(4-methyl-1-oxo-1,3-dihydroisobenzofuran-5-yl)ethyl)amino)methyl)-2-methyl-1H-imidazol-1-yl)-4-methoxynicotinonitrile]: the pIC50 at hROMK (human Kir1.1) is 6.74. The same molecule had an inhibition at 1 µM against hERG channels of 13%.

Turning to `CCOc1cc(-n2cc(CNC[C@H](O)c3ccc4c(c3C)COC4=O)nn2)ncc1C#N` [Example 156, (R)-4-ethoxy-6-(4-(((2-hydroxy-2-(4-methyl-1-oxo-1,3-dihydroisobenzofuran-5-yl)ethyl)amino)methyl)-1H-1,2,3-triazol-1-yl)nicotinonitrile], the pIC50 on hROMK (human Kir1.1) is 8.01. Besides, the inhibition at 1 µM on hERG channels was 15%.

As for `COc1cc(-n2cc(CNC[C@H](O)c3ccc4c(c3C)COC4=O)cn2)ncc1C#N` [Example 173, (R)-6-(4-(((2-hydroxy-2-(4-methyl-1-oxo-1,3-dihydroisobenzofuran-5-yl)ethyl)amino)methyl)-1H-pyrazol-1-yl)-4-methoxynicotinonitrile], at hROMK (human Kir1.1), the pIC50 is 8.62. The same molecule had an inhibition at 1 µM against hERG channels of 77%.

On to `CCOc1cc(-n2cc(CNC[C@H](O)c3ccc4c(c3C)COC4=O)cn2)ncc1C#N` [Example 152, (R)-4-ethoxy-6-(4-(((2-hydroxy-2-(4-methyl-1-oxo-1,3-dihydroisobenzofuran-5-yl)ethyl)amino)methyl)-1H-pyrazol-1-yl)nicotinonitrile], for which, at hROMK (human Kir1.1), the pIC50 was 8.21. The inhibition at 1 µM against hERG channels amounted to 64%.

`Cc1c([C@@H](O)CNCc2cn(-c3ccc4oc(=O)n(C)c4c3)nc2C(F)(F)F)ccc2c1COC2=O` [Example 95, (R)-5-(4-(((2-hydroxy-2-(4-methyl-1-oxo-1,3-dihydroisobenzofuran-5-yl)ethyl)amino)methyl)-3-(trifluoromethyl)-1H-pyrazol-1-yl)-3-methylbenzo[d]oxazol-2(3H)-one]: the pIC50 at hROMK (human Kir1.1) was 7.25. At hERG channels, this molecule registered an inhibition at 1 µM of 11%.

As for `Cc1cc(-n2cc(CNC[C@H](O)c3ccc4c(c3C)COC4=O)cn2)cnc1C#N` [Example 73, (R)-5-(4-(((2-hydroxy-2-(4-methyl-1-oxo-1,3-dihydroisobenzofuran-5-yl)ethyl)amino)methyl)-1H-pyrazol-1-yl)-3-methylpicolinonitrile], at hROMK (human Kir1.1), the pIC50 was 7.44. Also, the inhibition at 1 µM against hERG channels stood at 31%.
